Blank lines part the entries; values can stand above or below the compound they belong to. Activity calls are given as the source filed them. The rule behind the calls is not given here.
Assays:
[1] = target: T1, A disintegrin and metalloproteinase with thrombospondin motifs 4 (Homo sapiens, UniProt O75173); experiment: Inhibition of aggrecanase1
T1 sequence (O75173 whole entry): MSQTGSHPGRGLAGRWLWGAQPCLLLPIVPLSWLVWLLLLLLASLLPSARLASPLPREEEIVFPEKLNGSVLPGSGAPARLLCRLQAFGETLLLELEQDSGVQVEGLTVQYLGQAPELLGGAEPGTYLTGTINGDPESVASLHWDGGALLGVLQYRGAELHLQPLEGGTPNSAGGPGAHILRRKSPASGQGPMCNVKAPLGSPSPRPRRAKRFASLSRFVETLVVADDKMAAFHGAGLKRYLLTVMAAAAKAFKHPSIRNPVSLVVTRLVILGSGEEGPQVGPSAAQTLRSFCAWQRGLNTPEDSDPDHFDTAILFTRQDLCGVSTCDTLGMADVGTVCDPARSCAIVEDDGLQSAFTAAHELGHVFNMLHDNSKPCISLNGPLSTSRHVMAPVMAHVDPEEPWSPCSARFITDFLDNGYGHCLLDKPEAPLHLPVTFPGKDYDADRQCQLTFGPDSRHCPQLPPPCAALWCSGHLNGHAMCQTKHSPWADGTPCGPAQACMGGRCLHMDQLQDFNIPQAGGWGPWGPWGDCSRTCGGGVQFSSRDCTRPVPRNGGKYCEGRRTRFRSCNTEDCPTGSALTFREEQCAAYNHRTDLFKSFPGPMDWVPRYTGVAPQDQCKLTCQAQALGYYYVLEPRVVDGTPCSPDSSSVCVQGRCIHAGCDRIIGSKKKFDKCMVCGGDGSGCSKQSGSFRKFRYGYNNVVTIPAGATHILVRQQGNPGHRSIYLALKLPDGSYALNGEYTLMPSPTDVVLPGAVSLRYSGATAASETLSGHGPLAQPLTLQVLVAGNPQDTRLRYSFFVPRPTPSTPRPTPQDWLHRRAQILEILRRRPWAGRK

[2] = target: Matrix metalloproteinase-14 (Homo sapiens, UniProt P50281); experiment: Inhibition of MMP14
[3] = target: T2, A disintegrin and metalloproteinase with thrombospondin motifs 4 (Bos taurus) (UniProt Q9TT93); experiment: Inhibition of IL1-induced aggrecanase activity in bovine cartilage explant assessed as release of degraded extracellular matrix aggrecan
T2 sequence (whole entry): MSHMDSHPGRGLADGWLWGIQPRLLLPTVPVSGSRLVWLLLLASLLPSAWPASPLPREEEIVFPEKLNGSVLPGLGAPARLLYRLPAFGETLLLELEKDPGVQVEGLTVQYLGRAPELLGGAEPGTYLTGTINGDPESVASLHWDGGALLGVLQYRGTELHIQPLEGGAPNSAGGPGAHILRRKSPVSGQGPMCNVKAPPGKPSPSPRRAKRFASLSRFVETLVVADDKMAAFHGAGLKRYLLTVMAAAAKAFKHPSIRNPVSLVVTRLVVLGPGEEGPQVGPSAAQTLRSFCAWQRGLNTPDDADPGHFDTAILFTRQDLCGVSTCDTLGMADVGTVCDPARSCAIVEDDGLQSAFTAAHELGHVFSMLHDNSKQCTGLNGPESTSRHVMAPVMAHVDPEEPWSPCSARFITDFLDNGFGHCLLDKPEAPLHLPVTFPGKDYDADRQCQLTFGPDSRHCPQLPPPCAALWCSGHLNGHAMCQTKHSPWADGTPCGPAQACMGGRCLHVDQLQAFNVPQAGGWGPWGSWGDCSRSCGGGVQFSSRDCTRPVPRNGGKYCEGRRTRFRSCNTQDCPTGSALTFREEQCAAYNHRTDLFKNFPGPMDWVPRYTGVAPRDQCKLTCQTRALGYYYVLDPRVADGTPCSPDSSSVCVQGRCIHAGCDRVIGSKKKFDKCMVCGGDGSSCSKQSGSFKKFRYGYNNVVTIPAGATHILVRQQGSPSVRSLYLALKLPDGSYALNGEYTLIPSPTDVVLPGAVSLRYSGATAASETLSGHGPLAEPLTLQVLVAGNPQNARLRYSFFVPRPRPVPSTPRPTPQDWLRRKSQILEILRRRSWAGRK

[4] = Oral bioavailability in Sprague-Dawley rat at 25 mg/kg; format: ADME, organism-based; settings: in vivo
Collagenase 3 = Collagenase 3 (Homo sapiens, UniProt P45452); experiment: Inhibition of MMP13
Interstitial collagenase = target: T3, Interstitial collagenase (Homo sapiens, UniProt P03956); experiment: Inhibition of MMP1
T3 sequence (P03956 whole entry): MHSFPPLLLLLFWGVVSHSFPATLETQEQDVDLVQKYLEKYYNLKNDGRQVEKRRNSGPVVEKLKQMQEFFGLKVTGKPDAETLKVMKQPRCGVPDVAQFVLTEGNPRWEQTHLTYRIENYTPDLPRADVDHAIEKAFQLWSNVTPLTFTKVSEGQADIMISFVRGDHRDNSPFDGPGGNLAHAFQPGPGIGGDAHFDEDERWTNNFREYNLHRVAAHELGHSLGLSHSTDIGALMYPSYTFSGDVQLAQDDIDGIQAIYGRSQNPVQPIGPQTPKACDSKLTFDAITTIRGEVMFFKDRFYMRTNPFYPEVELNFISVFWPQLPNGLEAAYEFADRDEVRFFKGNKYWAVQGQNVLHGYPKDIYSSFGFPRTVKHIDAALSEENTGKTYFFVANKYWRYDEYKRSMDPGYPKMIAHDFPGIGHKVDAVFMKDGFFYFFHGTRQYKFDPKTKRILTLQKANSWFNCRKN

[5] = target: T2, A disintegrin and metalloproteinase with thrombospondin motifs 4 (Bos taurus); experiment: Inhibition of IL1-induced aggrecanase activity in bovine cartilage explant assessed as inhibition of proteoglycan degradation at 10 ug/ml after 3 days
[6] = Clearance in Sprague-Dawley rat at 2 mg/kg, iv or 25 mg/kg, po; format: ADME, organism-based; settings: in vivo
[7] = target: 72 kDa type IV collagenase (Homo sapiens, UniProt P08253); experiment: Inhibition of MMP2
Chain of 72 kDa type IV collagenase (P08253 whole entry): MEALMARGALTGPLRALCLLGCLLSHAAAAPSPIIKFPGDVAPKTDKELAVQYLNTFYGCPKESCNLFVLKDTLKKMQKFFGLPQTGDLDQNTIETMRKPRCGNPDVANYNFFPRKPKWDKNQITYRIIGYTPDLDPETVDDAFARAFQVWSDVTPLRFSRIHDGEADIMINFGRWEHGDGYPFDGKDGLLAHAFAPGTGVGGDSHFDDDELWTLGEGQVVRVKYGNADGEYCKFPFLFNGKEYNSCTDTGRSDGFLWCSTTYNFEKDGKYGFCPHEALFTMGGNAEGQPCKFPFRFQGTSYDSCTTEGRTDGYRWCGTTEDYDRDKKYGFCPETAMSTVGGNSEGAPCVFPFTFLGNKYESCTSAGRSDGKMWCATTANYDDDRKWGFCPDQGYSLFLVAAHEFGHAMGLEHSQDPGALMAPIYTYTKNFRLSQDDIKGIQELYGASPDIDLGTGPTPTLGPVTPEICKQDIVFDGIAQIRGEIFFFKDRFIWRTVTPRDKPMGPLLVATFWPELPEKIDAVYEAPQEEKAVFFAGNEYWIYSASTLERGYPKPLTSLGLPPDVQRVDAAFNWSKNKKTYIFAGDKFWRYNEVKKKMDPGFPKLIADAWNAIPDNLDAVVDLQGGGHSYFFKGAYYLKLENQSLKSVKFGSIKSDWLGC

[8] = Cmax in Sprague-Dawley rat at 2 mg/kg, iv or 25 mg/kg, po; format: ADME, organism-based; settings: in vivo
[9] = Half life in Sprague-Dawley rat at 2 mg/kg, iv or 25 mg/kg, po; format: ADME, organism-based; settings: in vivo
[10] = target: T4, A disintegrin and metalloproteinase with thrombospondin motifs 5 (Homo sapiens, UniProt Q9UNA0); experiment: Inhibition of aggrecanase2
T4 sequence (Q9UNA0 whole entry): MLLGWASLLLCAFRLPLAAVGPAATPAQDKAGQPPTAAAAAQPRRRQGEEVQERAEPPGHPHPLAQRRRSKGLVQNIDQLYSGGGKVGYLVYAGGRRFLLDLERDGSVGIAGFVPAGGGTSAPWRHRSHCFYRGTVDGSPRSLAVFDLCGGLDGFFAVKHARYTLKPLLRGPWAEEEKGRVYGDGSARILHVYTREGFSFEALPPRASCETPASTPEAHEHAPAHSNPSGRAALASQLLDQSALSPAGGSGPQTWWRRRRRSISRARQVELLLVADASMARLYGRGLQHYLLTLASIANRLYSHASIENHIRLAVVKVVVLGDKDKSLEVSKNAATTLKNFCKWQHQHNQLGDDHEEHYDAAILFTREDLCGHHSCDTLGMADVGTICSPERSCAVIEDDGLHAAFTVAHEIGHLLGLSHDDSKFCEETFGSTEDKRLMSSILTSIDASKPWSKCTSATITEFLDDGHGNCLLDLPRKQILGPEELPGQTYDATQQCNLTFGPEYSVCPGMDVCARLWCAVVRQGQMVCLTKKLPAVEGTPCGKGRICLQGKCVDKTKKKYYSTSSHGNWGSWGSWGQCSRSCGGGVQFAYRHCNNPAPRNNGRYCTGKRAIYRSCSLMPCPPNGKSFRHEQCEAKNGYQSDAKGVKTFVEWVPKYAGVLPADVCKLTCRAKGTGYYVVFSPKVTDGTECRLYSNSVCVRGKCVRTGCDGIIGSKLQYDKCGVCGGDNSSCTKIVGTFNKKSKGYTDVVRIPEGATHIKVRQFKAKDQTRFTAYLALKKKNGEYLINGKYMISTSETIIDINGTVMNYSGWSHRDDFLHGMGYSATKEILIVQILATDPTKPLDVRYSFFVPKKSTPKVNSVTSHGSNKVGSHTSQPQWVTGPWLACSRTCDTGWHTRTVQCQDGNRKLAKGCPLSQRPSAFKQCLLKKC

[11] = target: T5, A disintegrin and metalloproteinase with thrombospondin motifs 5 (Homo sapiens) (UniProt Q9UNA0); experiment: Inhibition of aggrecanase2 at 2.5 uM
T5 sequence (whole entry): T4 sequence (Q9UNA0 whole entry)

SMILES: Cc1c(CC(=O)Oc2ccc(-c3ccc(S(=O)(=O)N[C@@H](C(=O)O)C(C)C)cc3)cc2)oc2ccccc12
IC50 [1]: 700 nM

SMILES: CC(C)[C@@H](NS(=O)(=O)c1ccc(-c2ccc(COc3ccc4c(c3)CCCC4=O)cc2)cc1C(F)(F)F)C(=O)O
IC50 [1]: 3200 nM

SMILES: CC(C)[C@@H](NS(=O)(=O)c1ccc(-c2ccc(COc3ccc(C(=O)N4CCOCC4)cc3)cc2)cc1)C(=O)O
IC50 [1]: 5200 nM

SMILES: CC(C)[C@@H](NS(=O)(=O)c1ccc(-c2ccc(COc3ccc4ccccc4n3)cc2)cc1)C(=O)O
IC50 [1]: 400 nM

SMILES: CC(C)[C@@H](NS(=O)(=O)c1ccc(-c2ccc(COc3ccc4c(c3)CCCC4=O)cc2)cc1F)C(=O)O
IC50 [1]: 180 nM

SMILES: CC(C)C(=O)c1ccc(OCc2ccc(-c3ccc(S(=O)(=O)N[C@@H](C(=O)O)C(C)C)cc3)cc2)cc1
IC50 [2]: 915 nM
Activity [3]: Active
IC50 (Collagenase 3): 1.1 nM
IC50 (Interstitial collagenase): > 100000 nM
Activity [5]: Active
IC50 [7]: 1.3 nM

SMILES: CC(C)[C@@H](NS(=O)(=O)c1ccc(-c2ccc(COc3ccc4c(c3)CCCC4=O)cc2)cc1)C(=O)O
IC50 [2]: 1300 nM
Activity [3]: Active
IC50 (Collagenase 3): 2.2 nM
IC50 (Interstitial collagenase): > 100000 nM
inhibition [5]: 53%
IC50 [1]: 230 nM
IC50 [7]: 6.3 nM
IC50 [10]: 6600 nM

SMILES: CC(C)[C@@H](NS(=O)(=O)c1ccc(-c2ccc(COc3ccc(C(=O)c4ccc(F)cc4)cc3)cc2)cc1)C(=O)O
IC50 [2]: 220 nM
Activity [3]: Active
IC50 (Collagenase 3): 6.3 nM
IC50 (Interstitial collagenase): > 100000 nM
inhibition [5]: 71%
IC50 [1]: 80 nM
IC50 [7]: 3.6 nM
inhibition [11]: 55%

SMILES: CC(C)[C@@H](NS(=O)(=O)c1ccc(-c2ccc(COc3ccc(CN4CCOCC4)cc3)cc2)cc1)C(=O)O
IC50 [1]: 6000 nM

Further compounds by falling IC50 [1], results first:

IC50 [1]: 20000 nM
SMILES: CC(C)[C@@H](NS(=O)(=O)c1ccc(-c2ccc(COc3ccc4c(c3)CCCC4=O)cc2)cc1OC(F)(F)F)C(=O)O

IC50 [1]: 4900 nM
SMILES: CC(C)[C@@H](NS(=O)(=O)c1ccc(-c2ccc(COc3cccc(N(C)C)c3)cc2)cc1)C(=O)O

IC50 [1]: 730 nM
SMILES: Cc1cccc(Oc2ccc(OCc3ccc(-c4ccc(S(=O)(=O)N[C@@H](C(=O)O)C(C)C)cc4)cc3)cc2)n1

IC50 [1]: 590 nM
SMILES: CC(C)[C@@H](NS(=O)(=O)c1ccc(-c2ccc(COc3ccc(NC(=O)OC(C)(C)C)cc3)cc2)cc1)C(=O)O

IC50 [1]: 430 nM
SMILES: CC(=O)c1ccc(OCc2ccc(-c3ccc(S(=O)(=O)N[C@@H](C(=O)O)C(C)C)cc3)cc2)cc1

IC50 [1]: 230 nM
SMILES: CC(C)[C@@H](NS(=O)(=O)c1ccc(-c2ccc(COc3ccc(C(=O)c4ccccc4)cc3)cc2)cc1)C(=O)O

IC50 [1]: 200 nM
SMILES: CC(C)[C@@H](NS(=O)(=O)c1ccc(-c2ccc(COc3cc4cccc(C(F)(F)F)c4nc3C(F)(F)F)cc2)cc1)C(=O)O

IC50 [2]: 1640 nM
Activity [3]: Active
bioavailability [4]: 13%
IC50 (Collagenase 3): 15 nM
IC50 (Interstitial collagenase): > 100000 nM
inhibition [5]: 69%
IC50 [1]: 90 nM
clearance [6]: 6.9 mL/min/kg
IC50 [7]: 5.3 nM
Cmax [8]: 694 ng/mL
half-life [9]: 3.07 h
SMILES: CC(C)[C@@H](NS(=O)(=O)c1ccc(-c2ccc(COc3ccc(C(=O)C4CCCCC4)cc3)cc2)cc1)C(=O)O

— ChEMBL document CHEMBL1138597, “Synthesis and biological evaluation of ((4-keto)-phenoxy)methyl biphenyl-4-sulfonamides: a class of potent aggrecanase-1 inhibitors” (Bioorg Med Chem Lett, 2009)
